Test results reported in ChEMBL document CHEMBL1145258, “Geometry, topology, and atom-weights assembly descriptors to predicting A1 adenosine receptors agonists” (Bioorg Med Chem Lett, 2005).

Target: T1, Adenosine receptor A1 (Rattus norvegicus, UniProt P25099)
T1 sequence (P25099 whole entry): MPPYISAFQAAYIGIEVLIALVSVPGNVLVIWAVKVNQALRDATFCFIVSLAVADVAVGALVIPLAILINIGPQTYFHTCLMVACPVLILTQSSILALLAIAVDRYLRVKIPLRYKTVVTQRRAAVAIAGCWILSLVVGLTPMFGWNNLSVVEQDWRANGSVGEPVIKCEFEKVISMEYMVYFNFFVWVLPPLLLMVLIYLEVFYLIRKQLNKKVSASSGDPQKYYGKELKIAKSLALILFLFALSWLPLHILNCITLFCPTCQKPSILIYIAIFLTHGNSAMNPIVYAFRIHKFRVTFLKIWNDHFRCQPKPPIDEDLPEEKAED
Assay: Inhibition of [3H]R-PIA binding to Adenosine A1 receptor from rat brain membrane

| Structure (SMILES) | Ki |
| --- | --- |
| CCNC(=O)[C@H]1OC(n2cnc3c(NC(=O)Nc4ccc(S(=O)(=O)Nc5ccccn5)cc4)ncnc32)[C@H](O)[C@@H]1O (some centres undefined) | 292 nM |
| CCNC(O)[C@H]1O[C@@H](n2cnc3c(NC(=O)Nc4ccc(S(=O)(=O)Nc5cc(C)on5)cc4)ncnc32)[C@H](O)[C@@H]1O (some centres undefined) | 901 nM |
| CCNC(=O)[C@@H]1OC(n2cnc3c(NC(=O)Nc4ccc(S(=O)(=O)Nc5ncccn5)cc4)ncnc32)[C@@H](O)[C@H]1O (some centres undefined) | 725 nM |
| CCNC(=O)[C@H]1OC(n2cnc3c(NC(=O)c4ccc(Cl)cc4Cl)ncnc32)[C@H](O)[C@@H]1O (some centres undefined) | 16 nM |
